Data taken from ChEMBL document CHEMBL3797130, “Development of novel proteasome inhibitors based on phthalazinone scaffold” (Bioorg Med Chem Lett, 2016).
Activity calls are given as the source filed them. The rule behind the calls is not given here.

Tests used:
[1] = molecular target: T1, Proteasome Macropain subunit MB1 (Homo sapiens) (UniProt P28074); test: Inhibition of chymotrypsin-like activity of 20S human proteasome assessed as […] at 25 ug/ml using Promega proteasome-Glo-3 substrate incubated for 15 mins by luminescence assay
T1 sequence (whole entry): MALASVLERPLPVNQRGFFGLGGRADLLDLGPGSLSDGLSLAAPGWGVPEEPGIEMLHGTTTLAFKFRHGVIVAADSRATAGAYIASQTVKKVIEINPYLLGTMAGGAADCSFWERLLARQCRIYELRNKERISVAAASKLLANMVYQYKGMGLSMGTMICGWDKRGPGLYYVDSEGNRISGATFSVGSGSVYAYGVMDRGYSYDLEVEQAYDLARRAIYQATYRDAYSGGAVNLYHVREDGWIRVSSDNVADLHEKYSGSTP

[2] = molecular target: T2, Proteasome Macropain subunit MB1 (Homo sapiens, UniProt P28074); test: Inhibition of chymotrypsin-like activity of 20S human proteasome assessed as […] at using Promega proteasome-Glo-3 substrate incubated for 15 mins by luminescence assay
T2 sequence (P28074 whole entry): T1 sequence (whole entry)

Structure (SMILES) | inhibition [1] | IC50 [2]
CCn1nc(-c2ccc(OCCCC[P+](c3ccccc3)(c3ccccc3)c3ccccc3)cc2)c2ccccc2c1=O | inactive | –
CCN(CC)c1ccc(-n2nc(-c3ccc(OCCCC[P+](C4CCCCC4)(C4CCCCC4)C4CCCCC4)cc3)c3ccccc3c2=O)cc1 | 98.5% | 13.3 µM
CCN(CC)c1ccc(-n2nc(-c3ccc(OCCCCN4CCCCC4)cc3)c3ccccc3c2=O)cc1 | 8% | –
CCN(CC)c1ccc(-n2nc(-c3ccc(OCCCC[P+](c4ccccc4)(c4ccccc4)c4ccccc4)cc3)c3ccccc3c2=O)cc1 | 99.1% | 10.2 µM
CCN(CC)c1ccc(-n2nc(-c3ccc(OCCCC[n+]4ccn(C)c4)cc3)c3ccccc3c2=O)cc1 | 5.8% | –
O=c1c2ccccc2c(-c2ccc(OCCCC[P+](c3ccccc3)(c3ccccc3)c3ccccc3)cc2)nn1-c1cccs1 | 93.2% | 17.6 µM
O=c1c2ccccc2c(-c2ccc(OCCCC[P+](c3ccccc3)(c3ccccc3)c3ccccc3)cc2)nn1CC1CCC1 | 70.5% | 21.5 µM
O=c1c2ccccc2c(-c2ccc(OCCCC[P+](c3ccccc3)(c3ccccc3)c3ccccc3)cc2)nn1Cc1ccccc1 | 80.9% | 11.9 µM
O=c1c2ccccc2c(-c2ccc(OCCCC[P+](c3ccccc3)(c3ccccc3)c3ccccc3)cc2)nn1-c1ccc2ccccc2c1 | 98.7% | 13.8 µM
CCN(CC)c1ccc(-n2nc(-c3ccc(OCCCC[n+]4ccccc4)cc3)c3ccccc3c2=O)cc1 | 8.6% | –
CCN(CC)c1ccc(-n2nc(-c3ccc(OCCCCBr)cc3)c3ccccc3c2=O)cc1 | inactive | –
Cn1nc(-c2ccc(OCCCC[P+](c3ccccc3)(c3ccccc3)c3ccccc3)cc2)c2ccccc2c1=O | inactive | –
CNc1ccc(-n2nc(-c3ccc(OCCCC[P+](c4ccccc4)(c4ccccc4)c4ccccc4)cc3)c3ccccc3c2=O)cc1 | 94.3% | 14.2 µM
O=c1c2ccccc2c(-c2ccc(OCCCC[P+](c3ccccc3)(c3ccccc3)c3ccccc3)cc2)nn1CC1CC1 | 48.2% | 23 µM
CCCCn1nc(-c2ccc(OCCCC[P+](c3ccccc3)(c3ccccc3)c3ccccc3)cc2)c2ccccc2c1=O | 35.8% | –
CCN(CC)c1ccc(-n2nc(-c3ccc(OCCCCP(c4ccccc4)c4ccccc4)cc3)c3ccccc3c2=O)cc1 | 19.6% | –
CC(C)Cn1nc(-c2ccc(OCCCC[P+](c3ccccc3)(c3ccccc3)c3ccccc3)cc2)c2ccccc2c1=O | 52.4% | 26 µM
CCCn1nc(-c2ccc(OCCCC[P+](c3ccccc3)(c3ccccc3)c3ccccc3)cc2)c2ccccc2c1=O | 12.1% | –
O=c1c2ccccc2c(-c2ccc(OCCCC[P+](c3ccccc3)(c3ccccc3)c3ccccc3)cc2)nn1CC1CCCCC1 | 84.9% | 16.1 µM
O=c1c2ccccc2c(-c2ccc(OCCCC[P+](c3ccccc3)(c3ccccc3)c3ccccc3)cc2)nn1-c1ccccc1 | 99.5% | 9.88 µM
CCN(CC)c1ccc(-n2nc(-c3ccc(OCCCCN4CCOCC4)cc3)c3ccccc3c2=O)cc1 | 5.1% | –
CCN(CC)c1ccc(-n2nc(-c3ccc(OCCCCN4CCCC4)cc3)c3ccccc3c2=O)cc1 | 13.2% | –
CCN(CC)c1ccc(-n2nc(-c3ccc(OCCCC[N+](CC)(CC)CC)cc3)c3ccccc3c2=O)cc1 | 10.3% | –
